The target of this assay is T1, human Y5 receptor (hNPY-5) (Homo sapiens, UniProt Q15761).
T1 construct: expressed in transfected cells; host or cells: mouse fibroblast LM(tk-) cells, e.g. L-hY5-7 (ATCC CRL-11995)
T1 sequence (Q15761 1-445): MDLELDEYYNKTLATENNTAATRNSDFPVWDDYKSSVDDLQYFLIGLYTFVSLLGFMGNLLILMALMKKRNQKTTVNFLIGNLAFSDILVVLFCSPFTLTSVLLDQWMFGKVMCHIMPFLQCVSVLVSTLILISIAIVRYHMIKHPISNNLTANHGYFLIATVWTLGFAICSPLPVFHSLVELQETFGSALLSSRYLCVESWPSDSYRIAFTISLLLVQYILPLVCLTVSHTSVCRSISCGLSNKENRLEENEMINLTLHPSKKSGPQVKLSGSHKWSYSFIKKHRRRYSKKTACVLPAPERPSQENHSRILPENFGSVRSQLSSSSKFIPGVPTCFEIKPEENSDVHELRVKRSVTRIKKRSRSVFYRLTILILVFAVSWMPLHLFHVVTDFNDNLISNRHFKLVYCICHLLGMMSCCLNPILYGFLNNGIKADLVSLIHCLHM
The assay can be described thus: Radioligand binding to membranes, cloned human Y5 receptor. Conditions: cloned human NPY Y5 receptor, radioligand competition binding; Tables 1-3; read-out: Ki, nM hNPY-5. As for the experimental part: Binding of the compounds of the present invention to human Y1, Y2, Y4, and Y5 receptors was evaluated using stably transfected 293 or LM(tk-) cells as described above. Stably transfected cell lines which may be used for binding assays include, for example, for the human Y1 receptor, 293-hY1-5 (deposited Jun. 4, 1996, under ATCC Accession No. CRL-12121), for the human Y2 receptor, 293-hY2-10 (deposited Jan. 27, 1994, under ATCC Accession No. CRL-11537), for the human Y4 receptor, L-hY4-3 (deposited Jan. 11, 1995, under ATCC Accession No. CRL-11779), and for human Y5 receptor, L-hY5-7 (deposited Nov. 15, 1995, under ATCC Accession No. CRL-11995). These cell lines were deposited with the American Type Culture Collection (ATCC), 10801 University Blvd., Manassas, Va. 20110-2209, U.S.A. under the provisions of the Budapest Treaty for the International Recognition of the Deposit of Microorganisms for the Purposes of Patent Procedure.
Membranes were harvested from COS-7 cells 48 hours after transient transfection. Adherent cells were washed twice in ice-cold phosphate buffered saline (138 mM NaCl, 8.1 mM Na2HPO4, 2.5 mM KCl, 1.2 mM KH2PO4, 0.9 mM CaCl2, 0.5 mM MgCl2, pH 7.4) and lysed by sonication in ice-cold sonication buffer (20 mM Tris-HCl, 5 mM EDTA, pH 7.7). Large particles and debris were cleared by low speed centrifugation (200×g, 5 min, 4° C.). Membranes were collected from the supernatant fraction by centrifugation (32,000×g, 18 min, 4° C.), washed with ice-cold hypotonic buffer, and collected again by centrifugation (32,000×g, 18 min, 4° C.). The final membrane pellet was resuspended by sonication into a small volume of ice-cold binding buffer (˜1 ml for every 5 plates: 10 mM NaCl, 20 mM HEPES, 0.22 mM KH2PO4, 1.26 mM CaCl2, 0.81 mM MgSO4, pH 7.4). Protein concentration was measured by the Bradford method (Bradford, 1976) using Bio-Rad Reagent, with bovine serum albumin as a standard. Membranes were held on ice for up to one hour and used fresh, or flash-frozen and stored in liquid nitrogen.
Membranes were prepared similarly from 293, LM(tk-), and NIH-3T3 cells. To prepare membranes from baculovirus infected cells, 2×10^7 Sf21 cells were grown in 150 mm tissue culture dishes and infected with a high-titer stock of hY5BB3. Cells were incubated for 2-4 days at 27° C., no CO2 before harvesting and membrane preparation as described above.
Membrane suspensions were diluted in binding buffer supplemented with 0.1% bovine serum albumin to yield an optimal membrane protein concentration so that ^125I-PYY (or alternative radioligand such as ^125I-NPY, ^125I-PYY3-36, or ^125I-[Leu^31Pro^34]PYY) bound by membranes in the assay was less than 10% of ^125I-PYY (or alternative radioligand) delivered to the sample (100,000 dpm/sample=0.08 nM for competition binding assays). ^125I-PYY (or alternative radioligand) and peptide competitors were also diluted to desired concentrations in supplemented binding buffer. Individual samples were then prepared in 96-well polypropylene microtiter plates by mixing 125I-PYY (25 μL) (or alternative radioligand), competing peptides or supplemented binding buffer (25 μL), and finally, membrane suspensions (200 μL). Samples were incubated in a 30° C. water bath with constant shaking for 120 min. Incubations were terminated by filtration over Whatman GF/C filters (pre-coated with 1% polyethyleneimine and air-dried before use), followed by washing with 5 mL of ice-cold binding buffer. Filter-trapped membranes were impregnated with MeltiLex solid scintillant (Wallac, Turku, Finland) and counted for ^125I in a Wallac Beta-Plate Reader. Alternatively, incubations were carried out in GF/C filter plates (pre-coated with 1% polyethyleneimine and air-dried before use), followed by vacuum filtration and three washes of 300 μL of ice-cold binding buffer. 50 μL of UltimaGold (Packard) scintillant were added and counted for ^125I in a Wallac MicroBeta Trilux. […]
(In general: Displacement assays read how much labelled ligand stays bound in the presence of the test substance.)

SMILES strings stand for the structures. Structures can show the parent of a compound that is named as a salt.

As usually defined, the Ki is a measure of affinity in units of concentration, obtained from inhibition or displacement. As for `CC(C)N(C=O)[C@H]1CC[C@H](CNc2nc(-c3ccccc3)cs2)CC1` [Example 99, trans-N-Isopropyl-N-(4-[(4-phenyl-1,3-thiazol-2-yl)amino]methylcyclohexyl)formamide], the Ki worked out at 45 nM.

For `CCOC(=O)NC[C@H]1CC[C@H](Nc2nc(-c3cccc(OC)c3)cs2)CC1` [Example 94, trans-2-(4-Ethoxycarbonylaminomethyl)cyclohexylamino-4-(3-methoxy)phenylthiazole hydrogen chloride], the Ki amounted to 240 nM.

For `COc1ccccc1-c1csc(N[C@H]2CC[C@H](CNS(C)(=O)=O)CC2)n1` [Example 91, trans-4-(2-Methoxy)phenyl-2-(4-methylsulfonylamino-methyl)-cyclohexylamino-1,3-thiazole hydrochloride], the Ki is 12.3 nM.

Regarding `COc1ccc(C)cc1S(=O)(=O)NCCOCCNc1nc2c(s1)CCCc1ccc(F)cc1-2` [Example 58, 1-Aza-9-fluoro-4,5-dihydro-2-{2-[2-(2-methoxy-5-methylphenyl)sulfonylamino]ethoxy}ethylamino-3-thia-benzo[e]azulene], the Ki worked out at 3 nM.

As to `COCC(=O)N[C@H]1CC[C@H](CNc2nc3c(s2)CCOc2ccccc2-3)CC1` [Example 84, N1-{4-[(4,5-dihydrobenzo[2,3]oxepino[4,5-d][1,3]thiazol-2-ylamino)methyl]cyclohexyl}-2-methoxyacetamide], the Ki stood at 40 nM.

Take `CN(C)S(=O)(=O)NCCCCCNc1nc2c(s1)CCCc1ccc(F)cc1-2` [Example 2, 1-Aza-9-fluoro-4,5-dihydro-2-{5-(dimethyl-aminosulfonyl-amino)pentyl}amino-3-thia-benzo[e]azulene]: the Ki was found to be 1.6 nM.

As to `CCOC(=O)N[C@H]1CC[C@H](CNc2nc3c(s2)CCCc2ccc(F)cc2-3)CC1` [Example 68, trans-N2-(4-Ethoxycarbonylamino)cyclohexylmethyl-9-fluoro-5,6-dihydro-4H-benzo[6,7]cyclohepta[d][1,3]-thiazol-2-amine hydrochloride], the Ki worked out at 4 nM.

Take `COc1ccc2c(c1)CCCc1sc(N[C@H]3CC[C@H](CNS(=O)(=O)N4CCOCC4)CC3)nc1-2` [Example 78, trans-N2-(4-(1-Morpholinylsulfonylaminomethyl)-cyclohexyl-8-methoxy-5,6-dihydro-4H-benzo[6,7]-cyclohepta[d][1,3]thiazol-2-amine hydrochloride]: the Ki turned out to be 6 nM.

`COc1cccc(-c2csc(N[C@H]3CC[C@H](CNS(C)(=O)=O)CC3)n2)c1` [Example 93, trans-4-(3-Methoxy)phenyl-2-(4-methylsulfonylamino-methyl)-cyclohexylaminothiazole]: the Ki was determined as 150 nM.

On to `CN(C)S(=O)(=O)NCCCCNc1nc2c(s1)CCCc1ccc(F)cc1-2` [Example 6, 1-Aza-9-fluoro-4,5-dihydro-2-(4-(dimethyl-aminosulfonyl-amino)butyl)amino-3-thia-benzo[e]-azulene], for which the Ki was found to be 3.1 nM.

On to `CC(C)S(=O)(=O)N[C@H]1CC[C@H](CNc2nc3c(s2)CCCc2ccc(F)cc2-3)CC1` [Example 53, trans-1-Aza-9-fluoro-4,5-dihydro-2-{4-isopropyl-sulfonylamino}cyclohexylmethylamino-3-thia-benzo[e]-azulene], for which the Ki came to 3.2 nM.

Consider `COc1cccc2c1OCCc1sc(NC[C@H]3CC[C@H](NS(=O)(=O)N(C)C)CC3)nc1-2` [Example 66, trans-1-Aza-4,5-dihydro-7-methoxy-2-{4-dimethylamino-sulfonylamino}cyclohexylmethylamino-6-oxa-3-thia-benzo[e]azulene], for which the Ki amounted to 2 nM.

On to `O=S(=O)(NCCCCCNc1nc2c(s1)CCCc1ccc(F)cc1-2)c1cccnc1` [Example 55, 1-Aza-9-fluoro-4,5-dihydro-2-(5-(3-pyridyl)sulfonyl-amino)pentylamino-3-thia-benzo[e]azulene], for which the Ki was 3.4 nM.

On to `COCCOC(=O)NC[C@H]1CC[C@H](Nc2nc3c(s2)CCCc2ccc(F)cc2-3)CC1` [Example 77, trans-1-Aza-9-fluoro-4,5-dihydro-2-(4-(2-methoxy)-ethoxy-carbonylaminomethyl)cyclohexylamino-3-thia-benzo[e]azulene], for which the Ki came to 14.6 nM.

In the case of `CCOC(=O)NC[C@H]1CC[C@H](Nc2nc(-c3ccccc3OC)cs2)CC1` [Example 92, trans-2-(4-Ethoxycarbonylaminomethyl)cyclohexylamino-4-(2-methoxy)phenylthiazole hydrogen chloride], the Ki was found to be 912 nM.

As to `CC(=O)NC[C@H]1CC[C@H](Nc2nc3c(s2)CCCc2ccc(F)cc2-3)CC1` [Example 81, N1-({4-[(9-fluoro-5,6-dihydro-4H-benzo[6,7]-cyclohepta-[d][1,3]thiazol-2-yl)amino]cyclohexyl}-methyl)acetamide], the Ki worked out at 62 nM.

For the molecule `COc1ccc2c(c1)CCCc1sc(N[C@H]3CC[C@H](CNS(=O)(=O)C(C)C)CC3)nc1-2` [Example 73, trans-1-Aza-4,5-dihydro-2-(4-isopropylsulfonyl-aminomethyl)-cyclohexylamino-8-methoxy-3-thia-benzo[e]-azulene], the Ki turned out to be 8.7 nM.

As to `CCCN(C=O)C[C@H]1CC[C@H](Nc2nc3c(s2)CCCc2ccc(F)cc2-3)CC1` [Example 82, trans-1-Aza-9-fluoro-4,5-dihydro-2-(4-(N-propyl-formamido)-methyl)cyclohexylamino-3-thia-benzo[e]-azulene], the Ki was 11.9 nM.

Turning to `CCS(=O)(=O)N[C@H]1CC[C@H](CNc2nc3c(s2)CCCc2ccc(F)cc2-3)CC1` [Example 52, trans-N2-(4-Ethylsulfonylamino)cyclohexylmethyl-9-fluoro-5,6-dihydro-4H-benzo[6,7]cyclohepta[d][1,3]-thiazol-2-amine], the Ki was found to be 1.7 nM.

For `COCCN(C=O)[C@H]1CC[C@H](CNc2nc(-c3ccccc3)cs2)CC1` [Example 98, trans-N-(2-Methoxyethyl)-N-(4-[(4-phenyl-1,3-thiazol-2-yl)amino]methylcyclohexyl)formamide], the Ki came to 125 nM.

With `COc1cccc2c1OCCc1sc(N[C@H]3CC[C@H](CNS(C)(=O)=O)CC3)nc1-2` [Example 74, trans-1-Aza-4,5-dihydro-2-(4-methylsulfonylamino-methyl)-cyclohexylamino-7-methoxy-3-thia-benzo[e]-azulene], the Ki turned out to be 37 nM.

As for `O=S(=O)(NCCCCNc1nc2c(s1)CCCc1ccc(F)cc1-2)c1cccc2ccccc12` [Example 8, 1-Aza-9-fluoro-4,5-dihydro-2-(4-(1-naphthyl)sulfonyl-amino)butylamino-3-thia-benzo[e]azulene], the Ki came to 94 nM.

For the origin of these results see patent US7273880B2, “Selective NPY (Y5) antagonists” (H. Lunbeck A/S, priority 1999, dated 2007).
